Read-outs that look alike come from different tables or passages of the source.
Columns and labels:
[1] = tested on: non-malignant fibroblasts (HFP1); assay: crystal violet assay, cellular viability, 48 hrs; type: cell-based; settings: Fibroblast
Experimental: [The source words this procedure for another cell line and reports this cell line under the same test.] (§1) Compound 1 and a comparative compound deferasirox (DFX) were tested in their efficacy to kill/suppress proliferation of malignant breast cancer MCF7 cells representing estrogen-dependent type of breast cancer. Briefly, 10.000 cells per well were seeded in a 96-well plate on one day and the next day the tested compounds were added and incubated with the cells for 48 hrs. The cells were then fixed with 4% paraformaldehyde, stained with 0.05% crystal violet, washed with PBS, and solubilized in 1% SDS. The absorbance of the plate at 595 nm was then measured, quantifying the number of viable cells.
Compounds 1, 2 and the comparative compound deferasirox were tested in their efficacy to suppress proliferation/kill several malignant cell lines of breast, pancreatic and ovarian origin (MCF7, MDA-MB-231, BxPC3 and OVCAR3). The procedure is identical to that in example 12.

[2] = tested on: tamoxifen resistant MCF7 (Tam5R); assay: crystal violet assay, tamoxifen resistant cells; type: cell-based; settings: MCF7 Tam5R grown in the presence of 5 μM tamoxifen
Experimental: as §1
(§2) To test whether compound 1 is active against resistant cancer cells, we used tamoxifen-resistant MCF7, T47D. The IC50 values were again measured with the crystal violet assay performed as in example 12. We have documented that there is a significant difference in the ability of compound 1 to induce cytostatic and cytotoxic effects between the parental cells sensitive to tamoxifen and the resistant ones that grow even in the presence of tamoxifen (Table 11), yet the IC50 values are still in the nM range, making this compound very efficient.

[3] = tested on: tamoxifen resistant T47D (Tam5R); assay: crystal violet assay, tamoxifen resistant cells; type: cell-based; settings: Homo sapiens, T47D Tam5R grown in the presence of 5 μM tamoxifen
Experimental: as §1, §2

[4] = tested on: leukemia cells; assay: alamarBlue viability, leukemia cells overall; type: cell-based; settings: for IC50: read-out: IC50 (suppression of proliferation to 50%)
Experimental: Compound 1 and a comparative compound deferasirox (DFX) were tested in their efficacy to kill/suppress proliferation of several leukemia cells. Briefly, 10.000 cells per well were seeded in a 96-well plate on one day and the next day the tested compounds were added and incubated with the cells for 48 hrs. Cellular viability was determined as the ability to reduce the probe alamarBlue™ Cell Viability Reagent.

[5] = tested on: MCF7 cells; assay: oxygen consumption rate (OCR), Seahorse XFe96; type: cell-based; settings: for Oxygen consumption rate, Basal / Oxygen consumption rate, Maximal / Oxygen consumption rate, Proton-leak: MCF7
Experimental: For Seahorse analysis, 20.000 cells were seeded in 96 well plates and added immediately before measurement (addition, Table 6) or incubated with compound 1 for 1 hour (preincubation, Table 7). Afterwards, oxygen consumption rate (OCR) was measured in three cycles of 3 minutes preceded by 3 minutes of mixing, using a Seahorse XFe96 analyzer (Agilent). Results express the mean values of the three cycles.

[6] = tested on: MCF7; assay: cell cycle distribution, Vybrant DyeCycle Violet, flow cytometry; type: cell-based; settings: 1 μM
Experimental: (§3) In order to define the effect on cellular level, we investigated the effect of compound 1 and 2 at non-cytotoxic concentrations of the drugs (1 μM) on cell cycle. Cells were cultivated with the compounds for 24 and 48 hrs and then stained with Vybrant DyeCycle VioletReady Flow reagent (ThermoFisher Scientific) that binds to DNA and analyzed by Flow cytometry and Kaluza program to define the proportions of G1,S and G2/M phases of cell cycle. It is evident that both compounds lead to accumulation of cells in G1 phase if the cell cycle, which become more prominent at later time points (see Table 12, 13).

[7] = tested on: MDA-MB-231; assay: as above; type: cell-based; settings: 1 μM
Experimental: as §3

[8] = tested on: triple negative breast cancer cells (MDA-MB-231) xenograft; assay: tumor growth in xenograft model; type: in vivo, NOD/SCID gamma mice; settings: for relative tumor size compared to day 0: 2/week
Experimental: The effect of compound 1 on tumor growth in vivo was assessed in a xenograft model of triple negative breast cancer cells (MDA-MB-231) injected into NOD/SCID gamma mice. 1×10^6 cells were injected subcutaneously into each mouse. When the tumors were approximately 10 mm^3 in volume, the animals were randomly divided in two groups and injected intra-peritoneally with either compound 1 (2 mg/kg in corn oil) or vehicle (2.5% DMSO in corn oil), twice per week for 21 days. Tumor size was determined by ultrasound using a Vevo 3100 Preclinical Imaging System (VisualSonics).

[9] = tested on: MCF7; assay: cellular ROS, DCF-DA probe, flow cytometry; type: cell-based; settings: 5 μM
Experimental: (§4) The effect of compound 1 on generation of cellular reactive oxygen species (ROS) was evaluated in MCF7 and MDA-MB-231 cells using a cell permeable ROS probe 2′,7′-dichlorodihydrofluorescein diacetate (DCF-DA; Sigma-Aldrich) that measures several reactive species and becomes fluorescent upon oxidation. Cells treated with compound 1 or compound 2 (5 μM) for the described time interval were stained with the probe and then analyzed via Flow cytometry.

[10] = tested on: MDA-MB-231; assay: cellular ROS, DCF-DA probe, flow cytometry; type: cell-based; settings: 5 μM
Experimental: as §4

SMILES: O=C(O)c1ccc(-n2nc(-c3ccccc3O)nc2-c2ccccc2O)cc1 [DFX, deferasirox, reference compound]
- IC50 [1]: 37900 nM
- IC50 [2]: 15000 nM
- IC50 [3]: 82600 nM
- IC50 ([4]; several leukemia cells, 48 hrs): 5000 to 80000 nM

SMILES: O=C(NCCCCCCCCCC[P+](c1ccccc1)(c1ccccc1)c1ccccc1)c1ccc(-n2nc(-c3ccccc3O)nc2-c2ccccc2O)cc1 [Compound 1, (10-(4-(3,5-bis(2-hydroxyphenyl)-1H-1,2,4-triazol-1-yl)benzamido)decyl) triphenylphosphonium Chloride]
- IC50 [1]: 532 nM
- IC50 [2]: 38 nM
- IC50 [3]: 112 nM
- Oxygen consumption rate, Basal ([5]; 5 μM, 1 h preincubation): 39.9 (5.8) pmol*min^−1 10.000 cells^−1
- Oxygen consumption rate, Maximal ([5]; 5 μM, 1 h preincubation): 20.7 (4.5) pmol*min^−1 10.000 cells^−1
- Oxygen consumption rate, Proton-leak ([5]; 5 μM, 1 h preincubation): 33.1 (4.7) pmol*min^−1 10.000 cells^−1
- Oxygen consumption rate, Basal ([5]; 5 μM, immediate addition): 52.4 (9.2) pmol*min^−1 10.000 cells^−1
- Oxygen consumption rate, Maximal ([5]; 5 μM, immediate addition): 29.7 (5.8) pmol*min^−1 10.000 cells^−1
- Oxygen consumption rate, Proton-leak ([5]; 5 μM, immediate addition): 43.5 (7.6) pmol*min^−1 10.000 cells^−1
- Oxygen consumption rate, Basal ([5]; 10 μM, 1 h preincubation): 30.9 (3.1) pmol*min^−1 10.000 cells^−1
- Oxygen consumption rate, Maximal ([5]; 10 μM, 1 h preincubation): 17.4 (3.8) pmol*min^−1 10.000 cells^−1
- Oxygen consumption rate, Proton-leak ([5]; 10 μM, 1 h preincubation): 25.9 (3.1) pmol*min^−1 10.000 cells^−1
- Oxygen consumption rate, Basal ([5]; 10 μM, immediate addition): 49.6 (9.6) pmol*min^−1 10.000 cells^−1
- Oxygen consumption rate, Maximal ([5]; 10 μM, immediate addition): 26.3 (5.4) pmol*min^−1 10.000 cells^−1
- Oxygen consumption rate, Proton-leak ([5]; 10 μM, immediate addition): 37.3 (6.1) pmol*min^−1 10.000 cells^−1
- effect on cellular respiration ([5]; OCR, Seahorse): marked inhibition of cellular respiration
- proportion of cells in G1 ([6]; 24 hrs): 82.8 (1.6)
- proportion of cells in G2 ([6]; 24 hrs): 13.2
- proportion of cells in S ([6]; 24 hrs): 4.0
- proportion of cells in G1 ([6]; 48 hrs): 75.8 (2.1)
- proportion of cells in G2 ([6]; 48 hrs): 12.4 (2.5)
- proportion of cells in S ([6]; 48 hrs): 11.9 (2.3)
- proportion of cells in G1 ([7]; 24 hrs): 64.6 (2.0)
- proportion of cells in G2 ([7]; 24 hrs): 27.7 (2.3)
- proportion of cells in S ([7]; 24 hrs): 7.7
- proportion of cells in G1 ([7]; 48 hrs): 65.0 (4.1)
- proportion of cells in G2 ([7]; 48 hrs): 25.2 (3.3)
- proportion of cells in S ([7]; 48 hrs): 9.8
- effect on tumor growth ([8]; 2 mg/kg intra-peritoneally, twice per week for 21 days): significantly slows down the tumor growth
- relative tumor size compared to day 0 ([8]; day 4, 2 mg/kg intra-peritoneally): 1.18 (0.3)
- relative tumor size compared to day 0 ([8]; day 7, 2 mg/kg intra-peritoneally): 2.04 (0.3)
- relative tumor size compared to day 0 ([8]; day 10, 2 mg/kg intra-peritoneally): 3.00 (0.4)
- relative tumor size compared to day 0 ([8]; day 14, 2 mg/kg intra-peritoneally): 4.90 (0.8)
- relative tumor size compared to day 0 ([8]; day 17, 2 mg/kg intra-peritoneally): 4.44 (0.3)
- relative tumor size compared to day 0 ([8]; day 21, 2 mg/kg intra-peritoneally): 5.12 (0.6)
- DCF-DA mean fluorescence ([9]; 5 min, MCF7 (0 min = 100)): 161.3 (29.8)
- DCF-DA mean fluorescence ([9]; 10 min, MCF7): 172.0 (18.9)
- DCF-DA mean fluorescence ([9]; 15 min, MCF7): 283.8 (36.6)
- DCF-DA mean fluorescence ([9]; 30 min, MCF7): 857.2 (299.0)
- DCF-DA mean fluorescence ([9]; 60 min, MCF7): 1435.0 (452.9)
- DCF-DA mean fluorescence ([10]; 5 min, MDA-MB-231 (0 min = 100)): 129.9 (17.4)
- DCF-DA mean fluorescence ([10]; 10 min, MDA-MB-231): 207.8 (94.2)
- DCF-DA mean fluorescence ([10]; 15 min, MDA-MB-231): 258.3 (71.2)
- DCF-DA mean fluorescence ([10]; 30 min, MDA-MB-231): 437.5 (105.9)
- DCF-DA mean fluorescence ([10]; 60 min, MDA-MB-231): 529.5 (176.1)
- IC50 ([4]; 48 h): 20 to 200 nM
- same effect at a concentration lower than deferasirox ([4]; IC50 versus deferasirox, leukemia cells): 40-4000 fold
- efficacy against leukemia cell lines ([4]; as seen in previous tables): 20 to 200 nM

Reference: US20220251124A1, “3,5-BIS(PHENYL)-1H-HETEROARYL DERIVATIVES AS MEDICAMENTS” (INSTITUTE OF BIOTECHNOLOGY CAS, V.V.I., priority 2019, published 2022)
